Reference: PubChem BioAssay AID2060497 (Molecular Pharmacology Branch, DTP, NCI, 2025)

Tested on: 317291-083-R-J1-PDC complex spheroids, viability
Assay: Anticancer human tumor 317291-083-R-J1-PDC patient-derived soft tissue sarcoma cell line growth inhibition [GQUAD]
Conditions: for IC50: curve of first compound; for viability, T/C: stronger effect = lower value
How it was run: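 Multi-cell-type spheroids of tumor cells with HUVEC and mesenchymal stem cells, treated with drug combinations. Concentrations descend in half-log steps from near clinical Cmax, or from 10 microM where Cmax is unknown; viability read-out.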

[1] = second compound 0.0316 µM, first compound 0.0316 µM
[2] = second compound 0.0316 µM, first compound 0.1 µM
[3] = second compound 0.0316 µM, first compound 0.316 µM
[4] = second compound 0.0316 µM, first compound 1 µM
[5] = second compound 0.0316 µM, first compound 3.16 µM
[6] = second compound 0.0316 µM, first compound 10 µM
[7] = second compound 0.1 µM, first compound 0.0316 µM
[8] = second compound 0.1 µM, first compound 0.1 µM
[9] = second compound 0.1 µM, first compound 0.316 µM
[10] = second compound 0.1 µM, first compound 1 µM
[11] = second compound 0.1 µM, first compound 3.16 µM
[12] = second compound 0.1 µM, first compound 10 µM
[13] = second compound 0.316 µM, first compound 0.0316 µM
[14] = second compound 0.316 µM, first compound 0.1 µM
[15] = second compound 0.316 µM, first compound 0.316 µM
[16] = second compound 0.316 µM, first compound 1 µM
[17] = second compound 0.316 µM, first compound 3.16 µM
[18] = second compound 0.316 µM, first compound 10 µM
[19] = second compound 1 µM, first compound 0.0316 µM
[20] = second compound 1 µM, first compound 0.1 µM
[21] = second compound 1 µM, first compound 0.316 µM
[22] = second compound 1 µM, first compound 1 µM
[23] = second compound 1 µM, first compound 3.16 µM
[24] = second compound 1 µM, first compound 10 µM
[25] = second compound 3.16 µM, first compound 0.0316 µM
[26] = second compound 3.16 µM, first compound 0.1 µM
[27] = second compound 3.16 µM, first compound 0.316 µM
[28] = second compound 3.16 µM, first compound 1 µM
[29] = second compound 3.16 µM, first compound 3.16 µM
[30] = second compound 3.16 µM, first compound 10 µM
[31] = second compound 10 µM, first compound 0.0316 µM
[32] = second compound 10 µM, first compound 0.1 µM
[33] = second compound 10 µM, first compound 0.316 µM
[34] = second compound 10 µM, first compound 1 µM
[35] = second compound 10 µM, first compound 3.16 µM
[36] = second compound 10 µM, first compound 10 µM
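Note: spheroids exposed to compounds for one week before readout.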
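Throughout, for viability, T/C: percent viability relative to DMSO vehicle wells taken as 100%.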

C#Cc1c(F)ccc2cc(O)cc(-c3ncc4c(N5CC6CCC(C5)N6)nc(OCC56CCCN5CC(F)C6)nc4c3F)c12 (stereo unspecified) + CN(C)c1ccc(Nc2c3ccc(NC(=O)CCN4CCCC4)cc3nc3cc(NC(=O)CCN4CCCC4)ccc23)cc1 gave an IC50 (second compound 0.0316 µM) of 5.66 µM, an IC50 (second compound 0.1 µM) of 5.14 µM and an IC50 (second compound 0.316 µM) of 1.01 µM. It also gave an IC50 (second compound 1 µM) of less than 0.0316 µM, an IC50 (second compound 3.16 µM) of less than 0.0316 µM and an IC50 (second compound 10 µM) of less than 0.0316 µM. The viability, T/C [1] was 111%, the viability, T/C [2] was 90.8% and the viability, T/C [3] was 106%. It also gave a viability, T/C [4] of 107%, a viability, T/C [5] of 68% and a viability, T/C [6] of 32.4%. The viability, T/C [7] was 91.3%, the viability, T/C [8] was 98.9% and the viability, T/C [9] was 89.5%. For the same compound, the viability, T/C [10] was 86.2%, the viability, T/C [11] was 64.8% and the viability, T/C [12] was 29.6%. It also gave a viability, T/C [13] of 72.7%, a viability, T/C [14] of 74.4% and a viability, T/C [15] of 62.9%. For the same compound, the viability, T/C [16] was 49.9%, the viability, T/C [17] was 47.9% and the viability, T/C [18] was 42.1%. For the same compound, the viability, T/C [19] was 46.9%, the viability, T/C [20] was 35% and the viability, T/C [21] was 27.5%. It also gave a viability, T/C [22] of 19.7%, a viability, T/C [23] of 17.1% and a viability, T/C [24] of 0.42%. The viability, T/C [25] was 5.12%, the viability, T/C [26] was 2.52% and the viability, T/C [27] was 4.56%. It also gave a viability, T/C [28] of 2.64%, a viability, T/C [29] of 1.07% and a viability, T/C [30] of 0.36%. It also gave a viability, T/C [31] of 0.32%, a viability, T/C [32] of 0.73% and a viability, T/C [33] of 0.29%. The viability, T/C [34] was 0.39%, the viability, T/C [35] was 0.24% and the viability, T/C [36] was 0.39%.
Work on C=CCn1c(=O)c2cnc(Nc3ccc(N4CCN(C)CC4)cc3)nc2n1-c1cccc(C(C)(C)O)n1 + CN(C)c1ccc(Nc2c3ccc(NC(=O)CCN4CCCC4)cc3nc3cc(NC(=O)CCN4CCCC4)ccc23)cc1 yielded an IC50 (second compound 0.0316 µM) of 0.147 µM, an IC50 (second compound 0.1 µM) of 0.11 µM and an IC50 (second compound 0.316 µM) of 0.0346 µM. It also gave an IC50 (second compound 1 µM) of less than 0.0316 µM, an IC50 (second compound 3.16 µM) of less than 0.0316 µM and an IC50 (second compound 10 µM) of less than 0.0316 µM. It also gave a viability, T/C [1] of 87.1%, a viability, T/C [2] of 64.3% and a viability, T/C [3] of 21.7%. It also gave a viability, T/C [4] of 14.2%, a viability, T/C [5] of 8.78% and a viability, T/C [6] of 8.84%. For the same compound, the viability, T/C [7] was 82.5%, the viability, T/C [8] was 52% and the viability, T/C [9] was 25.7%. For the same compound, the viability, T/C [10] was 12.4%, the viability, T/C [11] was 9.4% and the viability, T/C [12] was 8.71%. For the same compound, the viability, T/C [13] was 51.3%, the viability, T/C [14] was 34.4% and the viability, T/C [15] was 14.4%. The viability, T/C [16] was 7.47%, the viability, T/C [17] was 7.01% and the viability, T/C [18] was 5.2%. For the same compound, the viability, T/C [19] was 31.1%, the viability, T/C [20] was 14.4% and the viability, T/C [21] was 8.51%. The viability, T/C [22] was 2.77%, the viability, T/C [23] was 1.74% and the viability, T/C [24] was 1.3%. It also gave a viability, T/C [25] of 2.02%, a viability, T/C [26] of 1.03% and a viability, T/C [27] of 0.41%. It also gave a viability, T/C [28] of 3.62%, a viability, T/C [29] of 0.31% and a viability, T/C [30] of 0.14%. It also gave a viability, T/C [31] of 0.27%, a viability, T/C [32] of 0.13% and a viability, T/C [33] of 0.18%. For the same compound, the viability, T/C [34] was 0.15%, the viability, T/C [35] was 0.21% and the viability, T/C [36] was 0.15%.
For CC(=O)O[C@H]1C(=O)[C@@]2(C)[C@H]([C@H](OC(=O)c3ccccc3)[C@]3(O)C[C@H](OC(=O)[C@H](O)[C@@H](NC(=O)c4ccccc4)c4ccccc4)C(C)=C1C3(C)C)[C@]1(OC(C)=O)CO[C@@H]1C[C@@H]2O + CN(C)c1ccc(Nc2c3ccc(NC(=O)CCN4CCCC4)cc3nc3cc(NC(=O)CCN4CCCC4)ccc23)cc1, the IC50 (second compound 0.0316 µM) was less than 0.0316 µM, the IC50 (second compound 0.1 µM) was less than 0.0316 µM and the IC50 (second compound 0.316 µM) was less than 0.0316 µM. It also gave an IC50 (second compound 1 µM) of less than 0.0316 µM, an IC50 (second compound 3.16 µM) of less than 0.0316 µM and an IC50 (second compound 10 µM) of less than 0.0316 µM. It also gave a viability, T/C [1] of 46.5%, a viability, T/C [2] of 17% and a viability, T/C [3] of 12.4%. The viability, T/C [4] was 14.7%, the viability, T/C [5] was 11.4% and the viability, T/C [6] was 12.4%. The viability, T/C [7] was 39.5%, the viability, T/C [8] was 13.6% and the viability, T/C [9] was 12.5%. For the same compound, the viability, T/C [10] was 12.2%, the viability, T/C [11] was 10.4% and the viability, T/C [12] was 10.6%. For the same compound, the viability, T/C [13] was 25.9%, the viability, T/C [14] was 14% and the viability, T/C [15] was 9.98%. The viability, T/C [16] was 8.69%, the viability, T/C [17] was 10.2% and the viability, T/C [18] was 9.42%. It also gave a viability, T/C [19] of 21.7%, a viability, T/C [20] of 6.55% and a viability, T/C [21] of 5.24%. The viability, T/C [22] was 7.99%, the viability, T/C [23] was 6.09% and the viability, T/C [24] was 6.28%. The viability, T/C [25] was 9.14%, the viability, T/C [26] was 0.56% and the viability, T/C [27] was 0.37%. It also gave a viability, T/C [28] of 0.6%, a viability, T/C [29] of 1.62% and a viability, T/C [30] of 0.92%. The viability, T/C [31] was 0.91%, the viability, T/C [32] was 0.27% and the viability, T/C [33] was 0.18%. For the same compound, the viability, T/C [34] was 0.29%, the viability, T/C [35] was 0.25% and the viability, T/C [36] was 0.23%.
